Patent EP0349354A1, “Peptides PF10 to PF19 from a retro virus HIV, method for the synthesis of these peptides and their use, particularly in diagnostics” (INSTITUT PASTEUR, priority 1988, dated 1990)

Experiments:
[1] = tested on: anticorps anti-protéine F; experiment: Western blot test on peptide spots with sera of HIV-1 infected patients; format: binding, humain; parameters: key to réaction avec sérum CHA 1/300, 10µl / réaction avec sérum LOM 1/100, 10µl / réaction avec sérum LOM 1/100, 5µl / réaction avec sérum CHA 1/300, 5µl / réaction avec sérum CHA 1/300, 2µl / réaction avec sérum CHA 1/300, 1µl / réaction avec sérum 1545 1/200, 10µl: ++ signifiant une réaction plus marquée
Method: Pour les besoins du test, les différents peptides PF16, PF19, PF13, PF17 utilisés sont dilués à une concentration de 2 mg/ml.
Sur une bande de papier BIORAD pour transblot, on dépose différents spots : 1µl, 2µl, 5µl, 10µl.
Après séchage on pratique un test Western Blot classique en utilisant comme anticorps des sérums de patients infectés par le virus HIV-1, positifs pour la protéine F, à des dilutions variant de 1/100 à 1/300.
Les peptides testés permettent d'aboutir aux résultats résumés dans le tableau 2 avec trois sérums différents anti-F ++ (++ signifiant une réaction plus marquée).

anticorps anti-nef = experiment: ELISA for detection of anti-nef antibodies on coated peptides or nef; format: binding, humain; conditions: 500 ng coated per well
Method: Des plaques de microtitration à 96 puits ont été recouvertes une nuit avec 500 ng de protéine nef bactérienne, à 37°C ou avec 500 ng de peptides synthétiques par puits dans 50µl de PBS à pH 7,4. Après saturation avec 400 µl de PBS pH 7,4, contenant 5% de caséine, durant 1 heure à 37°C et lavage avec PBS à pH 7,4, 0,5% de BSA, 0,01% tween, 50 µl de sérums à différentes dilutions ont été ajoutés pendant 2 heures à 37°C. Après le rinçage, 50µl de complexes d'IgG de souris anti-humaine-(H + L)-peroxydase 1:1000 ont été incubés pendant 1 heure à 37°C. Après un nouveau rinçage, 100µl de OPD ont été ajoutés pendant 30mn à température ambiante dans l'obscurité. La réaction de l'enzyme a été arrêtée par addition de 50µl d'acide sulfurique 4N et la densité optique des plaques a été lue à 492 nm/620 nm. Les plaques recouvertes avec la caséine ont été utilisées comme contrôle négatif.
En vue d'étudier la possibilité d'utiliser des peptides synthétiques en tant qu'antigènes pour la détection d'anticorps anti-nef chez des patients infectés par HIV, 8 peptides synthétiques couvrant la totalité de la séquence de la protéine nef de HIV-1 (figure 4) ont été utilisés dans un test ELISA avec 31 sérums anti-nef positifs et 2 sérums anti-nef négatifs utilisés comme contrôle. Les recombinants nef ont été utilisés comme contrôle positif dans les tests ELISA et la caséine a été utilisée comme contrôle négatif. Les résultats de ces expériences sont donnés dans le tableau 4 qui illustre l'essai suivant: Essai ELISA sur 31 sérums anti-nef-positifs et 2 sérums anti-nef- négatifs, soit pré-recouverts avec des peptides synthétiques (PF 11 à PF 18), soit en utilisant nef, la caséine ou un mélange de peptides PF 12 et PF 17. Les sérums ont été sélectionnés au hasard parmi des sérums anti-nef positifs et anti-nefs négatifs testés par la méthode RIA en utilisant ¹²⁵I nef. L'intensité de l'immunoradioactivité est notée "-" pour une densité optique (OD) inférieure à 0,2; "+" pour OD = 0,2 à 0,4; "++" pour OD = 0,4 à 0,8 et "+++" pour OD = 0,8 à 2,0.

Sequence: XCRGGLEGMFYSERRHKILNIYLEKEEGIIADZ [PF19]
- réaction avec sérum CHA 1/300, 5µl ([1]; serum CHA diluted 1/300, spot 5µl of peptide at 2 mg/ml): ++
- réaction avec sérum CHA 1/300, 10µl ([1]; serum CHA diluted 1/300, spot 10µl of peptide at 2 mg/ml): ++
- réaction avec sérum LOM 1/100, 5µl ([1]; serum LOM diluted 1/100 (column outside the heading of positive sera), spot 5µl of peptide at 2 mg/ml): tr
- réaction avec sérum LOM 1/100, 10µl ([1]; serum LOM diluted 1/100 (column outside the heading of positive sera), spot 10µl of peptide at 2 mg/ml): tr
- réaction avec sérum P.6. 1/200, 5µl ([1]; serum P.6. diluted 1/200, spot 5µl of peptide at 2 mg/ml): tr

Sequence: XGGKWSKSSVVGWPTVRERMRRAEPAADGVGAYCZ [PF11]
- intensité de l'immunoréactivité (OD), Serum 1 (anticorps anti-nef; Serum 1, anti-nef positive): - (pour une densité optique (OD) inférieure à 0,2)
- intensité de l'immunoréactivité (OD), Serum 2 (anticorps anti-nef; Serum 2, anti-nef positive): - (pour une densité optique (OD) inférieure à 0,2)
- intensité de l'immunoréactivité (OD), Serum 3 (anticorps anti-nef; Serum 3, anti-nef positive): - (pour une densité optique (OD) inférieure à 0,2)
- intensité de l'immunoréactivité (OD), Serum 4 (anticorps anti-nef; Serum 4, anti-nef positive): - (pour une densité optique (OD) inférieure à 0,2)
- intensité de l'immunoréactivité (OD), Serum 5 (anticorps anti-nef; Serum 5, anti-nef positive): - (pour une densité optique (OD) inférieure à 0,2)
- intensité de l'immunoréactivité (OD), Serum 6 (anticorps anti-nef; Serum 6, anti-nef positive): - (pour une densité optique (OD) inférieure à 0,2)
- intensité de l'immunoréactivité (OD), Serum 7 (anticorps anti-nef; Serum 7, anti-nef positive): ++ (pour OD = 0,4 à 0,8)
- intensité de l'immunoréactivité (OD), Serum 8 (anticorps anti-nef; Serum 8, anti-nef positive): - (pour une densité optique (OD) inférieure à 0,2)
- intensité de l'immunoréactivité (OD), Serum 9 (anticorps anti-nef; Serum 9, anti-nef positive): - (pour une densité optique (OD) inférieure à 0,2)
- intensité de l'immunoréactivité (OD), Serum 10 (anticorps anti-nef; Serum 10, anti-nef positive): - (pour une densité optique (OD) inférieure à 0,2)
- intensité de l'immunoréactivité (OD), Serum 11 (anticorps anti-nef; Serum 11, anti-nef positive): ++ (pour OD = 0,4 à 0,8)
- intensité de l'immunoréactivité (OD), Serum 12 (anticorps anti-nef; Serum 12, anti-nef positive): + (pour OD = 0,2 à 0,4)
- intensité de l'immunoréactivité (OD), Serum 13 (anticorps anti-nef; Serum 13, anti-nef positive): - (pour une densité optique (OD) inférieure à 0,2)
- intensité de l'immunoréactivité (OD), Serum 14 (anticorps anti-nef; Serum 14, anti-nef positive): - (pour une densité optique (OD) inférieure à 0,2)
- intensité de l'immunoréactivité (OD), Serum 15 (anticorps anti-nef; Serum 15, anti-nef positive): - (pour une densité optique (OD) inférieure à 0,2)
- intensité de l'immunoréactivité (OD), Serum 16 (anticorps anti-nef; Serum 16, anti-nef positive): - (pour une densité optique (OD) inférieure à 0,2)
- intensité de l'immunoréactivité (OD), Serum 17 (anticorps anti-nef; Serum 17, anti-nef positive): - (pour une densité optique (OD) inférieure à 0,2)
- intensité de l'immunoréactivité (OD), Serum 18 (anticorps anti-nef; Serum 18, anti-nef positive): - (pour une densité optique (OD) inférieure à 0,2)
- intensité de l'immunoréactivité (OD), Serum 19 (anticorps anti-nef; Serum 19, anti-nef positive): +++ (pour OD = 0,8 à 2,0)
- intensité de l'immunoréactivité (OD), Serum 20 (anticorps anti-nef; Serum 20, anti-nef positive): - (pour une densité optique (OD) inférieure à 0,2)
- intensité de l'immunoréactivité (OD), Serum 21 (anticorps anti-nef; Serum 21, anti-nef positive): + (pour OD = 0,2 à 0,4)
- intensité de l'immunoréactivité (OD), Serum 22 (anticorps anti-nef; Serum 22, anti-nef positive): - (pour une densité optique (OD) inférieure à 0,2)
- intensité de l'immunoréactivité (OD), Serum 23 (anticorps anti-nef; Serum 23, anti-nef positive): - (pour une densité optique (OD) inférieure à 0,2)
- intensité de l'immunoréactivité (OD), Serum 24 (anticorps anti-nef; Serum 24, anti-nef positive): - (pour une densité optique (OD) inférieure à 0,2)
- intensité de l'immunoréactivité (OD), Serum 25 (anticorps anti-nef; Serum 25, anti-nef positive): +++ (pour OD = 0,8 à 2,0)
- intensité de l'immunoréactivité (OD), Serum 26 (anticorps anti-nef; Serum 26, anti-nef positive): +++ (pour OD = 0,8 à 2,0)
- intensité de l'immunoréactivité (OD), Serum 27 (anticorps anti-nef; Serum 27, anti-nef positive): - (pour une densité optique (OD) inférieure à 0,2)
- intensité de l'immunoréactivité (OD), Serum 28 (anticorps anti-nef; Serum 28, anti-nef positive): + (pour OD = 0,2 à 0,4)
- intensité de l'immunoréactivité (OD), Serum 29 (anticorps anti-nef; Serum 29, anti-nef positive): + (pour OD = 0,2 à 0,4)
- intensité de l'immunoréactivité (OD), Serum 30 (anticorps anti-nef; Serum 30, anti-nef positive): - (pour une densité optique (OD) inférieure à 0,2)
- intensité de l'immunoréactivité (OD), Serum 31 (anticorps anti-nef; Serum 31, anti-nef positive): +++ (pour OD = 0,8 à 2,0)
- intensité de l'immunoréactivité (OD), Serum 32 (anticorps anti-nef; Serum 32, anti-nef negative control serum): - (pour une densité optique (OD) inférieure à 0,2)
- intensité de l'immunoréactivité (OD), Serum 33 (anticorps anti-nef; Serum 33, anti-nef negative control serum): - (pour une densité optique (OD) inférieure à 0,2)
